The numbers were not newly measured in patent publication US12633379B2, “Visible neural network framework” (priority 2020, dated 2026), which cites them from elsewhere.

The series concerns 39 human cancer cell lines.
Where [1] appears, read: across the majority of cell lines tested in DeepSynergy, partners in FIG. 5F: MK2206, PD325901.

As for `COc1cc([C@@H]2c3cc4c(cc3[C@@H](O[C@@H]3O[C@@H]5CO[C@@H](C)O[C@H]5[C@H](O)[C@H]3O)[C@H]3COC(=O)[C@H]23)OCO4)cc(OC)c1O` [etoposide], under setting [1], the “Loewe synergy in combination with AKT inhibition” value is “synergized strongly” and the “Loewe synergy in combination with MEK inhibition” value is “synergized strongly”. Further, under “combined with the proteasome inhibitor bortezomib, DeepSynergy cell line panel, FIG. 12A, FIG. 5F”, the “Loewe synergy in combination with bortezomib” value is reported as “did not synergize”.
